# pEC50: −log10 of the molar value. Counter-ions that a name gives are not always drawn.
# System: human breast cancer cell line T-47D
# Assay: Caspase cascade activation (DEVD-R110 fluorogenic substrate) in T-47D cells
# Format: cell-based
# Conditions: Homo sapiens, T47D, 24 h, T47D cells, 24 h; read-out: Caspase activation Potency EC50 T47D (24 h)
# Method: (§1) Human breast cancer cell line T-47D, human lung cancer cell line H1299, human hepatocellular carcinoma cell line SNU398, human colon carcinoma cell line HCT116 were grown according to media component mixtures designated by American Type Culture Collection+10% FCS (Invitrogen Corporation), in a 5% CO2-95% humidity incubator at 37° C. T-47D and H1299 cells were maintained at a cell density between 50 and 80% confluency at a cell density of 0.1 to 0.6×10^6 cells/mL. Cells were harvested at 600×g and resuspended at 0.65×10^6 cells/mL into appropriate media+10% FCS. An aliquot of 22.5 μL of cells was added to a well of a 384-well microtiter plate containing 2.5 μL of a 10% DMSO in RPMI-1640 media solution containing 0.16 to 100 μM of N-(2,5-dimethoxyphenyl)-2-methylthieno[3,2-d]pyrimidin-4-amine or other test compound (0.016 to 10 μM final). An aliquot of 22.5 μL of cells was added to a well of a 384-well microtiter plate containing 2.5 μL of a 10% DMSO in RPMI-1640 media solution without test compound as the control sample. The samples were mixed by agitation and then incubated at 37° C. for 24 h or 48 h in a 5% CO2-95% humidity incubator. After incubation, the samples were removed from the incubator and 25 μL of a solution containing 14 μM of N-(Ac-DEVD)-N′-ethoxycarbonyl-R110 (SEQ ID NO.:1) fluorogenic substrate (Cytovia, Inc.; WO99/18856), 20% sucrose (Sigma), 20 mM DTT (Sigma), 200 mM NaCl (Sigma), 40 mM Na PIPES buffer pH 7.2 (Sigma), and 500 μg/mL lysolecithin (Calbiochem) was added. The samples were mixed by agitation and incubated at room temperature. Using a fluorescent plate reader (Model SPECTRAfluor Plus, Tecan), an initial reading (T=0) was made approximately 1-2 min after addition of the substrate solution, employing excitation at 485 nm and emission at 530 nm, to determine the background fluorescence of the control sample. After the 3 h incubation, the samples were read for fluorescence as above (T=3 h).
# (§2) The Relative Fluorescence Unit values (RFU) were used to calculate the sample readings as follows: RFU(T=3h)−Control RFU(T=O)=Net RFU(T=3h)
# (§3) The activity of caspase cascade activation was determined by the ratio of the net RFU value for N-(2,5-dimethoxyphenyl)-2-methylthieno[3,2-d]pyrimidin-4-amine or other test compound to that of control samples. The EC50 (nM) was determined by a sigmoidal dose-response calculation (Prism 3.0, GraphPad Software Inc.).
row,pEC50,SMILES
1,< 5.00,"COC(=O)c1cc(Nc2ncnc3ccsc23)cc(C(=O)OC)c1 [Example 58, Dimethyl 5-(thieno[3,2-d]pyrimidin-4-ylamino)benzene-1,3-dioate]"
2,7.49,"COc1cc(Nc2nc(C)nc3cc(Br)sc23)cc(OC)c1 [Example 52, N-(3,5-Dimethoxyphenyl)-6-bromo-2-methylthieno[3,2-d]pyrimidin-4-amine]"
3,6.95,"COc1cc(Nc2nc(C)nc3sccc23)cc(OC)c1 [Example 55, N-(3,5-Dimethoxyphenyl)-2-methylthieno[2,3-d]pyrimidin-4-amine]"

# Second part, the compound before the results:
row,SMILES,pEC50
1,"Brc1cccc(Nc2ncnc3ccsc23)c1 [Example 25, N-(3-Bromophenyl)thieno[3,2-d]pyrimidin-4-amine hydrochloride]",5.25
2,"Oc1cc(O)cc(Nc2ncnc3ccsc23)c1 [Example 43, N-(3,5-Dihydroxyphenyl)thieno[3,2-d]pyrimidin-4-amine]",< 5.00
3,"CCOC(=O)C=Cc1ccc(Nc2ncnc3ccsc23)cc1 [Example 33, 3-[4-(Thieno[3,2-d]pyrimidin-4-ylamino)-phenyl]acrylic acid ethyl ester]",< 5.00
4,"c1nc(Nc2ccc3[nH]ccc3c2)c2sccc2n1 [Example 24, N-(1H-Indol-5-yl)thieno[3,2-d]pyrimidin-4-amine]",< 5.00
5,"COc1cc(Nc2ncnc3ccsc23)cc(OC)c1OC [Example 10, N-(3,4,5-Trimethoxyphenyl)thieno[3,2-d]pyrimidin-4-amine hydrochloride]",7.19
6,"COc1ccccc1Nc1ncnc2ccsc12 [Example 4, N-(2-Methoxyphenyl)thieno[3,2-d]pyrimidin-4-amine]",< 5.00
7,"COc1cc(O)cc(Nc2ncnc3ccsc23)c1 [Example 44, N-(3-Hydroxy-5-methoxyphenyl)thieno[3,2-d]pyrimidin-4-amine]",5.96

# Same assay, conditions: Homo sapiens, T47D, 48 h, T-47D cells, 48 h; read-out: Caspase activation Potency EC50 T-47D (48 h)
row,pEC50,SMILES
1,< 5.00,"Cc1cc(C)cc(Nc2ncnc3ccsc23)c1 [Example 57, N-(3,5-Dimethylphenyl)thieno[3,2-d]pyrimidin-4-amine]"
2,6.88,"COc1cc(Nc2ncnc3cc(Br)sc23)cc(N(C)C)c1 [Example 64, 6-Bromo-N-(3-dimethylamino-5-methoxyphenyl)thieno[3,2-d]pyrimidin-4-amine]"
3,6.25,"COC(=O)c1cc(Nc2ncnc3ccsc23)cc(C(=O)OC)c1 [Example 58, Dimethyl 5-(thieno[3,2-d]pyrimidin-4-ylamino)benzene-1,3-dioate]"
4,6.49,"COc1cc(Nc2nc(C)nc3ccsc23)cc(N(C)C)c1 [Example 63, N-(3-Dimethylamino-5-methoxyphenyl)-2-methylthieno[3,2-d]pyrimidin-4-amine]"
5,7.48,"COc1cc(Nc2nc(C)nc3cc(Br)sc23)cc(OC)c1 [Example 52, N-(3,5-Dimethoxyphenyl)-6-bromo-2-methylthieno[3,2-d]pyrimidin-4-amine]"
6,7.00,"COc1cc(Nc2nc(C)nc3sccc23)cc(OC)c1 [Example 55, N-(3,5-Dimethoxyphenyl)-2-methylthieno[2,3-d]pyrimidin-4-amine]"

# More lines, now with the values behind:
row,SMILES,pEC50
1,"Brc1cccc(Nc2ncnc3ccsc23)c1 [Example 25, N-(3-Bromophenyl)thieno[3,2-d]pyrimidin-4-amine hydrochloride]",< 5.00
2,"Oc1cc(O)cc(Nc2ncnc3ccsc23)c1 [Example 43, N-(3,5-Dihydroxyphenyl)thieno[3,2-d]pyrimidin-4-amine]",< 5.00
3,"CCOC(=O)C=Cc1ccc(Nc2ncnc3ccsc23)cc1 [Example 33, 3-[4-(Thieno[3,2-d]pyrimidin-4-ylamino)-phenyl]acrylic acid ethyl ester]",< 5.00
4,"c1nc(Nc2ccc3[nH]ccc3c2)c2sccc2n1 [Example 24, N-(1H-Indol-5-yl)thieno[3,2-d]pyrimidin-4-amine]",< 5.00
5,"COc1cc(Nc2ncnc3ccsc23)cc(OC)c1OC [Example 10, N-(3,4,5-Trimethoxyphenyl)thieno[3,2-d]pyrimidin-4-amine hydrochloride]",7.14
6,"COc1cc(Nc2nc(C)nc3scc(C)c23)cc(OC)c1 [Example 51, N-(3,5-Dimethoxyphenyl)-2,5-dimethylthieno[2,3-d]pyrimidin-4-amine]",5.60
7,"COc1ccccc1Nc1ncnc2ccsc12 [Example 4, N-(2-Methoxyphenyl)thieno[3,2-d]pyrimidin-4-amine]",< 5.00

# System: human lung cancer cell line H1299
# Assay: Caspase cascade activation in H1299 cells
# Format: cell-based
# Conditions: NCI-H1299, 24 h, read-out: Caspase activation Potency EC50 H1299 (24 h)
# Method: as §1, §2, §3
row,pEC50,SMILES
1,5.26,"Brc1cccc(Nc2ncnc3ccsc23)c1 [Example 25, N-(3-Bromophenyl)thieno[3,2-d]pyrimidin-4-amine hydrochloride]"
2,< 5.00,"Oc1cc(O)cc(Nc2ncnc3ccsc23)c1 [Example 43, N-(3,5-Dihydroxyphenyl)thieno[3,2-d]pyrimidin-4-amine]"
3,< 5.00,"CCOC(=O)C=Cc1ccc(Nc2ncnc3ccsc23)cc1 [Example 33, 3-[4-(Thieno[3,2-d]pyrimidin-4-ylamino)-phenyl]acrylic acid ethyl ester]"
4,< 5.00,"c1nc(Nc2ccc3[nH]ccc3c2)c2sccc2n1 [Example 24, N-(1H-Indol-5-yl)thieno[3,2-d]pyrimidin-4-amine]"
5,5.30,"COc1cc(Nc2ncnc3ccsc23)cc(OC)c1OC [Example 10, N-(3,4,5-Trimethoxyphenyl)thieno[3,2-d]pyrimidin-4-amine hydrochloride]"
6,< 5.00,"COc1ccccc1Nc1ncnc2ccsc12 [Example 4, N-(2-Methoxyphenyl)thieno[3,2-d]pyrimidin-4-amine]"
7,5.57,"COc1cc(O)cc(Nc2ncnc3ccsc23)c1 [Example 44, N-(3-Hydroxy-5-methoxyphenyl)thieno[3,2-d]pyrimidin-4-amine]"

# System: human colon carcinoma cell line HCT116
# Assay: Caspase cascade activation in HCT116 cells
# Format: cell-based
# Conditions: Homo sapiens, HCT-116, 48 h, read-out: Caspase activation Potency EC50 HCT116 (48 h)
# Method: as §1, §2, §3
row,pEC50,SMILES
1,< 5.00,"Cc1cc(C)cc(Nc2ncnc3ccsc23)c1 [Example 57, N-(3,5-Dimethylphenyl)thieno[3,2-d]pyrimidin-4-amine]"
2,5.89,"COc1cc(Nc2ncnc3cc(Br)sc23)cc(N(C)C)c1 [Example 64, 6-Bromo-N-(3-dimethylamino-5-methoxyphenyl)thieno[3,2-d]pyrimidin-4-amine]"
3,6.46,"COC(=O)c1cc(Nc2ncnc3ccsc23)cc(C(=O)OC)c1 [Example 58, Dimethyl 5-(thieno[3,2-d]pyrimidin-4-ylamino)benzene-1,3-dioate]"
4,5.90,"COc1cc(Nc2nc(C)nc3ccsc23)cc(N(C)C)c1 [Example 63, N-(3-Dimethylamino-5-methoxyphenyl)-2-methylthieno[3,2-d]pyrimidin-4-amine]"
5,7.09,"COc1cc(Nc2nc(C)nc3cc(Br)sc23)cc(OC)c1 [Example 52, N-(3,5-Dimethoxyphenyl)-6-bromo-2-methylthieno[3,2-d]pyrimidin-4-amine]"
6,< 5.00,"COc1cc(Nc2nc(C)nc3sccc23)cc(OC)c1 [Example 55, N-(3,5-Dimethoxyphenyl)-2-methylthieno[2,3-d]pyrimidin-4-amine]"

# Second part, the compound before the results:
row,SMILES,pEC50
1,"Brc1cccc(Nc2ncnc3ccsc23)c1 [Example 25, N-(3-Bromophenyl)thieno[3,2-d]pyrimidin-4-amine hydrochloride]",< 5.00
2,"Oc1cc(O)cc(Nc2ncnc3ccsc23)c1 [Example 43, N-(3,5-Dihydroxyphenyl)thieno[3,2-d]pyrimidin-4-amine]",< 5.00
3,"CCOC(=O)C=Cc1ccc(Nc2ncnc3ccsc23)cc1 [Example 33, 3-[4-(Thieno[3,2-d]pyrimidin-4-ylamino)-phenyl]acrylic acid ethyl ester]",< 5.00
4,"c1nc(Nc2ccc3[nH]ccc3c2)c2sccc2n1 [Example 24, N-(1H-Indol-5-yl)thieno[3,2-d]pyrimidin-4-amine]",< 5.00
5,"COc1cc(Nc2ncnc3ccsc23)cc(OC)c1OC [Example 10, N-(3,4,5-Trimethoxyphenyl)thieno[3,2-d]pyrimidin-4-amine hydrochloride]",5.30
6,"COc1cc(Nc2nc(C)nc3scc(C)c23)cc(OC)c1 [Example 51, N-(3,5-Dimethoxyphenyl)-2,5-dimethylthieno[2,3-d]pyrimidin-4-amine]",5.43
7,"COc1ccccc1Nc1ncnc2ccsc12 [Example 4, N-(2-Methoxyphenyl)thieno[3,2-d]pyrimidin-4-amine]",< 5.00

# System: human hepatocellular carcinoma cell line SNU398
# Assay: Caspase cascade activation in SNU398 cells
# Format: cell-based
# Conditions: Homo sapiens, SNU-398, 48 h, read-out: Caspase activation Potency EC50 SNU398 (48 h)
# Method: as §1, §2, §3
row,pEC50,SMILES
1,< 5.00,"Cc1cc(C)cc(Nc2ncnc3ccsc23)c1 [Example 57, N-(3,5-Dimethylphenyl)thieno[3,2-d]pyrimidin-4-amine]"
2,6.25,"COc1cc(Nc2ncnc3cc(Br)sc23)cc(N(C)C)c1 [Example 64, 6-Bromo-N-(3-dimethylamino-5-methoxyphenyl)thieno[3,2-d]pyrimidin-4-amine]"
3,6.77,"COC(=O)c1cc(Nc2ncnc3ccsc23)cc(C(=O)OC)c1 [Example 58, Dimethyl 5-(thieno[3,2-d]pyrimidin-4-ylamino)benzene-1,3-dioate]"
4,6.15,"COc1cc(Nc2nc(C)nc3ccsc23)cc(N(C)C)c1 [Example 63, N-(3-Dimethylamino-5-methoxyphenyl)-2-methylthieno[3,2-d]pyrimidin-4-amine]"
5,6.33,"COc1cc(Nc2nc(C)nc3cc(Br)sc23)cc(OC)c1 [Example 52, N-(3,5-Dimethoxyphenyl)-6-bromo-2-methylthieno[3,2-d]pyrimidin-4-amine]"
6,< 5.00,"COc1cc(Nc2nc(C)nc3sccc23)cc(OC)c1 [Example 55, N-(3,5-Dimethoxyphenyl)-2-methylthieno[2,3-d]pyrimidin-4-amine]"

# Further lines, the compound ahead of its results:
row,SMILES,pEC50
1,"Brc1cccc(Nc2ncnc3ccsc23)c1 [Example 25, N-(3-Bromophenyl)thieno[3,2-d]pyrimidin-4-amine hydrochloride]",< 5.00
2,"Oc1cc(O)cc(Nc2ncnc3ccsc23)c1 [Example 43, N-(3,5-Dihydroxyphenyl)thieno[3,2-d]pyrimidin-4-amine]",< 5.00
3,"CCOC(=O)C=Cc1ccc(Nc2ncnc3ccsc23)cc1 [Example 33, 3-[4-(Thieno[3,2-d]pyrimidin-4-ylamino)-phenyl]acrylic acid ethyl ester]",< 5.00
4,"c1nc(Nc2ccc3[nH]ccc3c2)c2sccc2n1 [Example 24, N-(1H-Indol-5-yl)thieno[3,2-d]pyrimidin-4-amine]",< 5.00
5,"COc1cc(Nc2ncnc3ccsc23)cc(OC)c1OC [Example 10, N-(3,4,5-Trimethoxyphenyl)thieno[3,2-d]pyrimidin-4-amine hydrochloride]",5.98
6,"COc1cc(Nc2nc(C)nc3scc(C)c23)cc(OC)c1 [Example 51, N-(3,5-Dimethoxyphenyl)-2,5-dimethylthieno[2,3-d]pyrimidin-4-amine]",5.58
7,"COc1ccccc1Nc1ncnc2ccsc12 [Example 4, N-(2-Methoxyphenyl)thieno[3,2-d]pyrimidin-4-amine]",< 5.00

# — patent US20070099877A1, “N-aryl-thienopyrimidin-4-amines and analogs as activators of caspases and inducers of apoptosis and the use thereof” (Cytovia, Inc., priority 2005, published 2007)
